Where a name gives a salt, the structure may show the parent alone.
Assays:
Hygroscopicity = format: physicochemical
[1] = N-1 versus N-2 crystalline dihydrochloride salts; cited from earlier work

Row | hygroscopicity (Hygroscopicity) | SMILES | thermodynamic stability among polymorphs [1]
1 | substantially non-hygroscopic | COC(=O)N[C@H](C(=O)N1CCC[C@H]1c1ncc(-c2ccc(-c3ccc(-c4cnc([C@@H]5CCCN5C(=O)[C@@H](NC(=O)OC)C(C)C)[nH]4)cc3)cc2)[nH]1)C(C)C [Form A, methyl((1 S)-1-(((2S)-2-(5-(4′-(2-((2S)-1-((2S)-2-((methoxycarbonyl)amino)-3-methylbutanoyl)-2-pyrrolidinyl)-1H-imidazol-5-yl)-4-biphenylyl)-1H-imidazol-2-yl)-1-pyrrolidinyl)carbonyl)-2-methylpropyl)carbamate] | 
2 |  | COC(=O)N[C@H](C(=O)N1CCC[C@H]1c1nc(-c2ccc(-c3ccc(-c4c[nH]c([C@@H]5CCCN5C(=O)[C@@H](NC(=O)OC)C(C)C)n4)cc3)cc2)c[nH]1)C(C)C [Form N-2, methyl((1S)-1-(((2S)-2-(5-(4′-(2-((2S)-1-((2S)-2-((methoxycarbonyl)amino)-3-methylbutanoyl)-2-pyrrolidinyl)-1H-imidazol-5-yl)-4-biphenylyl)-1H-imidazol-2-yl)-1-pyrrolidinyl)carbonyl)-2-methylpropyl) carbamate dihydrochloride] | thermodynamically most stable polymorph

From patent US10300044B2, “Polymorphic forms of methyl((1S)-1-(((2S)-2-(5-(4′-(2-((2S)-1-((2S)-2-((methoxycarbonyl)amino)-3-methylbutanoyl)-2-pyrrolidinyl)-1H-imidazol-5-yl)-4-biphenylyl)-1H-imidazol-2-yl)-1-pyrrolidinyl)carbonyl)-2-methylpropyl)carbamate and salts thereof” (Cipla Limited, priority 2014, dated 2019)
